In PubChem BioAssay AID2060486 (Molecular Pharmacology Branch, DTP, NCI, 2025):

System: IGROV1 complex spheroids (HUVEC, MSC), viability % test/control
Experiment: Anticancer human tumor IGROV1 cell line growth inhibition [GQUAD];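 further: spheroids exposed to compounds for 7 days before readout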
Conditions: for IC50: curve of first compound; for viability, T/C: stronger effect = lower value
Text: DNA G-quadruplex Stabilizer Agents in Combinations in Complex Spheroids
A high-throughput screen of multi-cell type tumor spheroids was designed to identify active combinations of DNA G-quadruplex stabilizer agents and targeted small molecules. Complex spheroids include a stromal component modeled by human endothelial cells (HUVEC) and fibroblasts modeled by human mesenchymal stem cells (MSCs). The concentration ranges selected for each drug and investigational agent were based upon clinically achievable concentrations if the clinical Cmax of the agent was known.
Compounds. The drugs and investigational agents: pidnarulex (CX-5461; NSC782164), APTO-253 (NSC789042), BRACO-19 (NSC847499), peposertib (NSC802822), ceralasertib (NSC780249), elimusertib (NSC800525), camonsertib (NSC841442), AZD-1390 (NSC803789), olaparib (NSC753686), talazoparib (NSC767125), ART-558 (NSC835418), sotorasib (NSC818433), MRTX-1133 (NSC836407), SN-38 (NSC673596), topotecan (NSC609699), etoposide (NSC141540), doxorubicin (NSC123127), gemcitabine (NSC613327), 5-fluorouracil (NSC19893), paclitaxel (NSC125973), vemurafenib (NSC761431), panobinostat (NSC761190), R-306465 (JNJ-16241199; NSC773264), adavosertib (NSC754352), TP-3654 (NSC805149), carboplatin (NSC241240), KSQ-4279 (NSC840948), and staurosporine (NSC755774) were obtained from the National Cancer Institute (NCI) Developmental Therapeutics Program Chemical Repository (34). The FDA-approved anticancer drug set is available from the NCI Developmental Therapeutics Program. […] The stock solutions were prepared in dimethyl sulfoxide (DMSO, Sigma-Aldrich, St. Louis, MO, cat. D2650) at 800-fold the tested concentration and stored at -70 degrees C prior to their use. All drugs and investigational agents were tested over a range starting from a high concentration at or near the clinical Cmax and decreasing in half-log increments. If the clinical Cmax for an agent had not been determined, the highest concentration tested was 10 microM.
2.3 Cell Culture. All cells were maintained in an incubator at 37 degrees C and 5% CO2 with 95% humidity. The PDC lines were cultured according to standard operating procedures established by the NCI PDMR. All PDCs were thawed and cultured in Matrigel-coated flasks prepared with a working solution of 1X Ham's F-12 nutrient mix, without supplementation (Invitrogen, cat. 11765054), 100 U/mL penicillin-streptomycin (Invitrogen, cat. 15140122), and 2.5% Matrigel (Corning Inc., cat. 354248) for the first three passages. The 857933-349-R-J2-PDC line was cultured in 6C/Colon 1B media, which includes advanced DMEM/F-12 (Thermo Fisher Scientific, cat. 12634028), 10 mM HEPES (Thermo Fisher Scientific, cat. 15630080), 1X GlutaMAX supplement (Thermo Fisher Scientific, cat. 35050061), 0.1 mg/mL primocin (InvivoGen, cat. ant-pm-2), 10% defined fetal bovine serum, heat inactivated (HyClone Laboratories Inc., cat. SH30070.03HI), 50% L-WRN conditioned media (ATCC, cat. CRL-3276), 1.25 mM N-Acetyl-L-cysteine (Sigma-Aldrich, cat. A9165), 10 mM nicotinamide (Sigma-Aldrich, cat. N0636), 1X B-27 supplement (Thermo Fisher Scientific, cat. 17504044), 1X N-2 supplement (Thermo Fisher Scientific, cat. 17502048), 10 microM Y-27632 dihydrochloride (Tocris Bioscience, cat. 1254), and 50 ng/mL human EGF recombinant protein (Thermo Fisher Scientific, cat. PHG0311). The 485176-168-R4-J1-PDC line was cultured in Panc media, which includes all 6C/Colon 1B media components plus 100 ng/mL human FGF-10 (Thermo Fisher Scientific, cat. 100-26), 500 nM SB-431542 (Selleckchem, cat. S1067), and gastrin (Tocris, cat. 3006).
[…]

[1] = second compound 0.0316 µM, first compound 0.0316 µM
[2] = second compound 0.0316 µM, first compound 0.1 µM
[3] = second compound 0.0316 µM, first compound 0.316 µM
[4] = second compound 0.0316 µM, first compound 1 µM
[5] = second compound 0.0316 µM, first compound 3.16 µM
[6] = second compound 0.0316 µM, first compound 10 µM
[7] = second compound 0.1 µM, first compound 0.0316 µM
[8] = second compound 0.1 µM, first compound 0.1 µM
[9] = second compound 0.1 µM, first compound 0.316 µM
[10] = second compound 0.1 µM, first compound 1 µM
[11] = second compound 0.1 µM, first compound 3.16 µM
[12] = second compound 0.1 µM, first compound 10 µM
[13] = second compound 0.316 µM, first compound 0.0316 µM
[14] = second compound 0.316 µM, first compound 0.1 µM
[15] = second compound 0.316 µM, first compound 0.316 µM
[16] = second compound 0.316 µM, first compound 1 µM
[17] = second compound 0.316 µM, first compound 3.16 µM
[18] = second compound 0.316 µM, first compound 10 µM
[19] = second compound 1 µM, first compound 0.0316 µM
[20] = second compound 1 µM, first compound 0.1 µM
[21] = second compound 1 µM, first compound 0.316 µM
[22] = second compound 1 µM, first compound 1 µM
[23] = second compound 1 µM, first compound 3.16 µM
[24] = second compound 1 µM, first compound 10 µM
[25] = second compound 3.16 µM, first compound 0.0316 µM
[26] = second compound 3.16 µM, first compound 0.1 µM
[27] = second compound 3.16 µM, first compound 0.316 µM
[28] = second compound 3.16 µM, first compound 1 µM
[29] = second compound 3.16 µM, first compound 3.16 µM
[30] = second compound 3.16 µM, first compound 10 µM
[31] = second compound 10 µM, first compound 0.0316 µM
[32] = second compound 10 µM, first compound 0.1 µM
[33] = second compound 10 µM, first compound 0.316 µM
[34] = second compound 10 µM, first compound 1 µM
[35] = second compound 10 µM, first compound 3.16 µM
[36] = second compound 10 µM, first compound 10 µM

Compound `C=CCn1c(=O)c2cnc(Nc3ccc(N4CCN(C)CC4)cc3)nc2n1-c1cccc(C(C)(C)O)n1` + CN(C)c1ccc(Nc2c3ccc(NC(=O)CCN4CCCC4)cc3nc3cc(NC(=O)CCN4CCCC4)ccc23)cc1 has an IC50 (second compound 0.0316 µM) of 153 nM, an IC50 (second compound 0.1 µM) of 145 nM and an IC50 (second compound 0.316 µM) of 138 nM. It also gave an IC50 (second compound 1 µM) of 136 nM, an IC50 (second compound 3.16 µM) of 112 nM and an IC50 (second compound 10 µM) of under 31.6 nM. The viability, T/C [1] was 92.4%, the viability, T/C [2] was 72.3% and the viability, T/C [3] was 12.3%. It also gave a viability, T/C [4] of 3.27%, a viability, T/C [5] of 3.29% and a viability, T/C [6] of 2.49%. It also gave a viability, T/C [7] of 90.8%, a viability, T/C [8] of 68.1% and a viability, T/C [9] of 12.1%. It also gave a viability, T/C [10] of 2.73%, a viability, T/C [11] of 2.54% and a viability, T/C [12] of 2.34%. It also gave a viability, T/C [13] of 76.4%, a viability, T/C [14] of 65.5% and a viability, T/C [15] of 10.3%. It also gave a viability, T/C [16] of 3.01%, a viability, T/C [17] of 2.63% and a viability, T/C [18] of 1.87%. For the same compound, the viability, T/C [19] was 61.6%, the viability, T/C [20] was 69.2% and the viability, T/C [21] was 8.29%. For the same compound, the viability, T/C [22] was 2.65%, the viability, T/C [23] was 2.66% and the viability, T/C [24] was 2.32%. The viability, T/C [25] was 67.7%, the viability, T/C [26] was 54.5% and the viability, T/C [27] was 7.41%. It also gave a viability, T/C [28] of 3.03%, a viability, T/C [29] of 2.47% and a viability, T/C [30] of 1.97%. The viability, T/C [31] was 37.6%, the viability, T/C [32] was 27.4% and the viability, T/C [33] was 5.31%. For the same compound, the viability, T/C [34] was 2.61%, the viability, T/C [35] was 1.87% and the viability, T/C [36] was 1.28%.

For `CC(C)n1c(=O)n(C)c2cnc3cc(F)c(-c4ccc(OCCCN5CCCCC5)nc4)cc3c21` + Cc1[nH]c2ccc(F)cc2c1-c1nc2c3cccnc3c3ncccc3c2[nH]1, the IC50 (second compound 0.0316 µM) was 3520 nM, the IC50 (second compound 0.1 µM) was 4100 nM and the IC50 (second compound 0.316 µM) was 2080 nM. The IC50 (second compound 1 µM) was under 31.6 nM, the IC50 (second compound 3.16 µM) was under 31.6 nM and the IC50 (second compound 10 µM) was under 31.6 nM. The viability, T/C [1] was 99.9%, the viability, T/C [2] was 84.8% and the viability, T/C [3] was 92.5%. The viability, T/C [4] was 69%, the viability, T/C [5] was 55.5% and the viability, T/C [6] was 18.6%. For the same compound, the viability, T/C [7] was 81.2%, the viability, T/C [8] was 91.8% and the viability, T/C [9] was 82.6%. For the same compound, the viability, T/C [10] was 62.3%, the viability, T/C [11] was 65.6% and the viability, T/C [12] was 20.5%. For the same compound, the viability, T/C [13] was 76.4%, the viability, T/C [14] was 88.8% and the viability, T/C [15] was 78%. The viability, T/C [16] was 59%, the viability, T/C [17] was 44.5% and the viability, T/C [18] was 12.2%. For the same compound, the viability, T/C [19] was 4%, the viability, T/C [20] was 4.91% and the viability, T/C [21] was 5.53%. The viability, T/C [22] was 4.22%, the viability, T/C [23] was 5.34% and the viability, T/C [24] was 3.26%. For the same compound, the viability, T/C [25] was 4.58%, the viability, T/C [26] was 4.72% and the viability, T/C [27] was 4.85%. The viability, T/C [28] was 5.73%, the viability, T/C [29] was 4.75% and the viability, T/C [30] was 1.86%. It also gave a viability, T/C [31] of 4.57%, a viability, T/C [32] of 6.24% and a viability, T/C [33] of 5.89%. For the same compound, the viability, T/C [34] was 5.99%, the viability, T/C [35] was 4.07% and the viability, T/C [36] was 2.35%.
